Here are results for three compounds from patent publication US12059486B2, “Cosmetic compositions” (Rodan & Fields, LLC, priority 2021, dated 2024).

Experiment [1] relates to human epidermal melanocytes. The experiment is described as follows: Melanin content in human epidermal melanocytes. In kind it is cell-based. As to conditions: 7 days. As for the experimental part: Test materials were added to exponentially growing cultures and the experiment was terminated 7 days later.
The next experiment concerns Type III collagen. The experiment is described as follows: Output of ECM components in adult human dermal fibroblast culture model (Method E): type III collagen. Format: cell-based. As to conditions: 10 ng/mL; day 7; corrected for cell numbers, % of water control. As to the method: (§1) Method E: Metabolism, Proliferation and Output of ECM Components in the Adult Human Dermal Fibroblast Culture Model. Test materials were dissolved in sterile cell culture medium at ×2 highest concentration tested and samples were added in triplicates to exponentially growing adult human dermal fibroblasts (aHDF; 7,000 cells/well of a 96 well plate; p.7 Cell Applications, San Diego, CA, cat. #106-05a; lot #3014). Cultures were maintained in DMEM/10% FBS. At the end of the experiments (day 7), macromolecules of interest were quantified either in the cell culture medium (decorin, type I collagen, type III collagen and hyaluronate) or on fixed cells (total insoluble proteins and elastin), by ELISA and sulforhodamine B, as indicated in Tables II-IV. Total insoluble (cytoskeletal) proteins were quantified to determine the effect of test materials on cell proliferation (cell numbers or cell #) according to the method described by Voigt et al., 2005. These values were also used to standardize decorin, type I collagen, type III collagen, elastin and hyaluronate output data to cell numbers, using the Equation 1: (Standardized Cell #)=[macromolecule of interest raw read out value]/cell number raw read out value] […]
(§2) This standardization was performed separately for each well. […] All colorimetric measurements were performed using Molecular Devices microplate reader MAX190 and SoftMax3.1.2PRO software. […]

The subject of the next experiment is insoluble decorin. Put plainly: Insoluble decorin in adult human dermal fibroblasts (Method F). The following applies: 10 ng/mL; day 7; standardized to cell numbers, % of water control. Format: cell-based. As for the experimental part:
(§3) Method F: Test materials were dissolved in sterile cell culture medium at x2 highest concentration tested and samples were added in triplicates to exponentially growing adult human dermal fibroblasts (7,000 cells/well of a 96 well plate; p.7 Cell Applications, San Diego, CA, cat. #106-05a; lot #3014). Cultures were maintained in DMEM/10%FBS. At the end of the experiment (day 7), decorin was quantified in the cell culture medium (soluble fraction) and on fixed cells (insoluble fraction) by ELISA. Total insoluble (cytoskeletal) proteins were quantified to determine the effect of test materials on cell proliferation (cell numbers or cell #) according to the method described by Voigt et al., 2005. These values were also used to standardize decorin output data to cell numbers, using Equation 1. This standardization was performed separately for each well. Each experimental condition and control was assayed at least in triplicates. The effect of test materials on mitochondrial metabolism was measured with the MTT assay, which measures the activity of mitochondrial dehydrogenases, such as succinate dehydrogenase, implicated in the respiratory electron transport chain in mitochondria (Berridge & Tan; 1993).

A further experiment has as its system elastin. Put plainly: Output of ECM components in adult human dermal fibroblast culture model (Method E): elastin. Format: cell-based. The following applies: 10 ng/mL; day 7; fixed cells; corrected for cell numbers, % of water control. As to the method:
as §1, §2

Another experiment concerns Type I Collagen. The experiment is described as follows: Output of ECM components in adult human dermal fibroblast culture model (Method E): type I collagen. In kind it is cell-based. As to conditions: 10 ng/mL; day 7; corrected for cell numbers, % of water control. As to the method:
as §1, §2

The next experiment concerns decorin. Put plainly: Output of ECM components in adult human dermal fibroblast culture model (Method E): decorin. In kind it is cell-based. The following applies: 10 ng/mL; day 7; corrected for cell numbers, % of water control. As for the experimental part:
as §1, §2

The subject of a further experiment is soluble decorin. Put plainly: Soluble decorin in adult human dermal fibroblasts (Method F). Format: cell-based. As to conditions: 10 ng/mL; day 7; standardized to cell numbers, % of water control. As to the method: as §3
In a further experiment the test system is hyaluronate. The experiment is described as follows: Output of ECM components in adult human dermal fibroblast culture model (Method E): hyaluronate. Format: cell-based. The following applies: 10 ng/mL; day 7; corrected for cell numbers, % of water control. As to the method: as §1, §2
Experiment [2] is described as follows: Free radical scavenging activity (ABTS). In kind it is biochemical. The following applies: 0.06 mg/mL; expressed as % water control. As for the experimental part:
Free radical scavenging activity was tested of different experimental conditions expressed as % water control. The positive control, ascorbic acid (Ref. 5), reached the expected level of inhibitory activity technically validating the experiments.

As for `O=c1cc(CO)occ1O` [Ref. 4, Kojic acid], the Melanin cell number-adjusted in experiment [1] (50 ug/mL) was 103 % Control; in [1] (200 ug/mL), 46 % Control.

Take basic fibroblast growth factor [bFGF]: the “Type III collagen” value in the experiment on Type III collagen is 87 % CTR. In the experiment on insoluble decorin, this compound came in with an Insoluble decorin of 87 % CTR. The elastin in the experiment on elastin was found to be 62 % CTR. The “Type I Collagen” value with Type I Collagen was 67 % CTR. Also, in the experiment on decorin, the decorin was determined as 57 % CTR. Further, the Soluble decorin in the experiment on soluble decorin is reported as 67 % CTR. The compound also returned a Hyaluronian in the experiment on hyaluronate of 72 % CTR.

Compound `O=C1O[C@H]([C@@H](O)CO)C(O)=C1O` [Ref. 5, ascorbic acid] displayed an ABTS in [2] of 0 % Control.
